pIC50: −log10 of the molar value. Structures can show the parent of a compound that is named as a salt. Where two headings read alike, the source gives them in different places.
What was measured:
Human Calpain 2/NS1 = molecular target: T1, Human Calpain 2/NS1 (Homo sapiens, UniProt P17655); assay: Calpain inhibition continuous fluorescence (FRET) assay, Human Calpain 2/NS1; type: biochemical; conditions: read-out: Human Calpain 2/NS1 IC50
T1 sequence (P17655 1-700): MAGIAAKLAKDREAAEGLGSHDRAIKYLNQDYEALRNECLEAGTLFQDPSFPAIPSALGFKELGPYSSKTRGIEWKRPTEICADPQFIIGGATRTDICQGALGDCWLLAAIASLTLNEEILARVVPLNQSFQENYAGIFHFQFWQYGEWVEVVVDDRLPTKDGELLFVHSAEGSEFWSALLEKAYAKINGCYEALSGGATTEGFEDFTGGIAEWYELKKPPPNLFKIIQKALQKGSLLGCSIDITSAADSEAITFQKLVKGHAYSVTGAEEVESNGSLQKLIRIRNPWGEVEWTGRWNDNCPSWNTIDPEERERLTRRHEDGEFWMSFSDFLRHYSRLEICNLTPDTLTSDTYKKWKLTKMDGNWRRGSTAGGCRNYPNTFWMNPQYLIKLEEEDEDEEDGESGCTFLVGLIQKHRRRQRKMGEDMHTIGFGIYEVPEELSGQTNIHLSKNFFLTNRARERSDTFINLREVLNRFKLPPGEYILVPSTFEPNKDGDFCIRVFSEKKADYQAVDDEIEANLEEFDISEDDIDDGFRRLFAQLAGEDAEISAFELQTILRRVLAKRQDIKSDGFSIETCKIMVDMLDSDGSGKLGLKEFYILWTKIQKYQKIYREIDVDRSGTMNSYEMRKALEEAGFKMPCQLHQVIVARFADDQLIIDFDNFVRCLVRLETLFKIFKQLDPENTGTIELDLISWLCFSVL
T1 sequence (P04632 1-268 partner): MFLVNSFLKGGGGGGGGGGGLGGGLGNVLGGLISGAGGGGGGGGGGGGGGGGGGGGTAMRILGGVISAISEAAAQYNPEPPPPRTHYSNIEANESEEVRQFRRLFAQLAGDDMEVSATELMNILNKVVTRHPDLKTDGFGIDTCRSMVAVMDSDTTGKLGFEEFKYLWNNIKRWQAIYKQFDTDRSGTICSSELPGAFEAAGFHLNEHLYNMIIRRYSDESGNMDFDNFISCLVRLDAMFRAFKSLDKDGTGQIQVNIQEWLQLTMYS
How it was run: (§1)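 Fluorescence increase from the cleaved 5-FAM/QXL 520 substrate, read at 490/520 nm, gave activity. Calcium was supplied with the substrate to activate the enzyme in situ after a 25C enzyme-inhibitor preincubation, and IC50s were fit from initial slopes.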

[1] = tested on: Calpain activity in SH-SY5Y cells; assay: SH-SY5Y + AMC fluorescence assay (Suc-LLVY-AMC substrate); type: cell-based; conditions: read-out: SH-SY5Y + AMC IC50
Human Calpain 9/NS1 = molecular target: T2, Human Calpain 9/NS1 (Homo sapiens, UniProt O14815); assay: Calpain inhibition continuous fluorescence (FRET) assay, Human Calpain 9/NS1; type: biochemical; conditions: read-out: Human Calpain 9/NS1 IC50
T2 sequence (O14815 1-690): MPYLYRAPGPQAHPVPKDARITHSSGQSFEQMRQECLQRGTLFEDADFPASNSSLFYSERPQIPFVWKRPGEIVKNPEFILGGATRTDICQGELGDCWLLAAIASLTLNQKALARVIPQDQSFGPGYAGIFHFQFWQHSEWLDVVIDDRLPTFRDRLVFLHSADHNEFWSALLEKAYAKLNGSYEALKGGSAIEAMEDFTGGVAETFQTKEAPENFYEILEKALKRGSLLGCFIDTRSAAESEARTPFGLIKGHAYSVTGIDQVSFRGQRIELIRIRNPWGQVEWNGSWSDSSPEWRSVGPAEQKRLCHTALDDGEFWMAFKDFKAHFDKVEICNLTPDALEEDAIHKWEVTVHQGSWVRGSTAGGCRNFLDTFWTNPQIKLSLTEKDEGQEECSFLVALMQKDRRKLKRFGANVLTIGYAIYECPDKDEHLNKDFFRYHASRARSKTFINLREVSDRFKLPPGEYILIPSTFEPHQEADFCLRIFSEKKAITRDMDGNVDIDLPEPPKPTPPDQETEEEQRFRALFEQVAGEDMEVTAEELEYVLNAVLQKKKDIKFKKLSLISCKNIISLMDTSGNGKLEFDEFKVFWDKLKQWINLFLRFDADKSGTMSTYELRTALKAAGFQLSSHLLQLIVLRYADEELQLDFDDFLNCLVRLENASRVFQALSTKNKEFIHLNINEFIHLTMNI
T2 sequence (P04632 1-268 partner): T1 sequence (P04632 1-268 partner)
How it was run: as §1

Human Calpain 1/NS1 = molecular target: T3, Human Calpain 1/NS1 (Homo sapiens, UniProt P07384); assay: Calpain inhibition continuous fluorescence (FRET) assay, Human Calpain 1/NS1; type: biochemical; conditions: read-out: Human Calpain 1/NS1 IC50
T3 sequence (P07384 1-714): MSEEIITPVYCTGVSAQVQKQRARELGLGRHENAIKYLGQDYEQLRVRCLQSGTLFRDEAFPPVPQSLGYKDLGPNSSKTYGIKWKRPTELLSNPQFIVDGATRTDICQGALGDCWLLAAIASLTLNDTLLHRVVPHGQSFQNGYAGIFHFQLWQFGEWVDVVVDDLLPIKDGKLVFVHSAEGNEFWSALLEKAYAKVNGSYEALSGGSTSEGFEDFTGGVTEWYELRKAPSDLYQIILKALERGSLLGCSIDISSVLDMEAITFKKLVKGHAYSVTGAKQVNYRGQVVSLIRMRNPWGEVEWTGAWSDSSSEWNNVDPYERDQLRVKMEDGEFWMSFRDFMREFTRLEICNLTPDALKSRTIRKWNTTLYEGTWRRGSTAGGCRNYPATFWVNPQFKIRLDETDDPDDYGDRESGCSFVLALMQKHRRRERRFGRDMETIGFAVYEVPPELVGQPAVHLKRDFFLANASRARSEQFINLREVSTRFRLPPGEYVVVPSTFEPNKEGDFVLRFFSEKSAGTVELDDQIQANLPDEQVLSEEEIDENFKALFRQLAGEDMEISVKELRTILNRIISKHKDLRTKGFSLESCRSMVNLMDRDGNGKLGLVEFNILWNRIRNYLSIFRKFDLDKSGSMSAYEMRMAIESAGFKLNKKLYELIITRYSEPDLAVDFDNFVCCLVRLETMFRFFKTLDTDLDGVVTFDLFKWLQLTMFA
T3 sequence (P04632 1-268 partner): T1 sequence (P04632 1-268 partner)
How it was run: as §1

NC(=O)C(=O)[C@H](Cc1ccccc1)NC(=O)c1cc(C2CC2)nn1-c1ccccc1 [Compound 306, (S)—N-(4-amino-3,4-dioxo-1-phenylbutan-2-yl)-3-cyclopropyl-1-phenyl-1H-pyrazole-5-carboxamide]
pIC50 (Human Calpain 2/NS1): 5.00 to 5.52
pIC50 [1]: > 5.00
pIC50 (Human Calpain 9/NS1): 5.00 to 5.52
pIC50 (Human Calpain 1/NS1): 5.00 to 5.52

Cc1cc(C(=O)N[C@@H](Cc2ccccc2)C(=O)C(=O)NC2CC2)n(-c2nc(-c3ccccc3)cs2)n1 [Compound 203, (S)—N-(4-(cyclopropylamino)-3,4-dioxo-1-phenylbutan-2-yl)-3-methyl-1-(4-phenylthiazol-2-yl)-1H-pyrazole-5-carboxamide]
pIC50 (Human Calpain 2/NS1; Column B): > 5.52
pIC50 ([1]; Column E): < 4.60
pIC50 (Human Calpain 9/NS1; Column C): < 5.00
pIC50 (Human Calpain 1/NS1; Column A): > 5.52

Cc1cc(C(=O)N[C@@H](Cc2ccccc2)C(=O)C(=O)NC2CC2)n(-c2cncnc2)n1 [Compound 127]
pIC50 (Human Calpain 2/NS1; Column B): > 5.52
pIC50 (Human Calpain 9/NS1; Column C): > 5.52
pIC50 (Human Calpain 1/NS1; Column A): > 5.52

CCn1ncc(Cl)c1C(=O)N[C@@H](Cc1ccccc1)C(=O)C(N)=O [Compound 311, (S)—N-(4-amino-3,4-dioxo-1-phenylbutan-2-yl)-4-chloro-1-ethyl-1H-pyrazole-5-carboxamide]
pIC50 (Human Calpain 2/NS1): > 5.52
pIC50 (Human Calpain 9/NS1): > 5.52
pIC50 (Human Calpain 1/NS1): > 5.52

CCCC[C@H](NC(=O)c1c(C)noc1-c1ccccc1)C(=O)C(N)=O [Compound 62, (S)—N-(1-amino-1,2-dioxoheptan-3-yl)-3-methyl-5-phenylisoxazole-4-carboxamide]
pIC50 (Human Calpain 2/NS1; Column B): > 5.52
pIC50 (Human Calpain 9/NS1; Column C): > 5.52
pIC50 (Human Calpain 1/NS1; Column A): > 5.52

O=C(NC1CC1)C(=O)[C@H](Cc1ccccc1)NC(=O)c1scnc1-n1cc2ccccc2n1 [Compound 64, (S)—N-(4-(cyclopropylamino)-3,4-dioxo-1-phenylbutan-2-yl)-4-(2H-indazol-2-yl)thiazole-5-carboxamide]
pIC50 (Human Calpain 2/NS1; Column B): > 5.52
pIC50 (Human Calpain 9/NS1; Column C): > 5.52
pIC50 (Human Calpain 1/NS1; Column A): > 5.52

NC(=O)C(=O)C(Cc1ccccc1)NC(=O)c1cn(C(F)F)nc1-c1ccc2ncccc2c1 (centres unmarked) [Compound 622, N-(4-amino-3,4-dioxo-1-phenylbutan-2-yl)-1-(difluoromethyl)-3-(quinolin-6-yl)-1H-pyrazole-4-carboxamide hydrochloride]
pIC50 (Human Calpain 2/NS1): > 5.52
pIC50 (Human Calpain 9/NS1): > 5.52
pIC50 (Human Calpain 1/NS1): > 5.52

Cn1cc(C(=O)NC(Cc2ccccc2)C(=O)C(N)=O)c(-c2ccc3c(c2)OCCCO3)n1 (centres unmarked) [Compound 625, N-(4-amino-3,4-dioxo-1-phenylbutan-2-yl)-3-(3,4-dihydro-2H-benzo[b][1,4]dioxepin-7-yl)-1-methyl-1H-pyrazole-4-carboxamide]
pIC50 (Human Calpain 2/NS1): > 5.52
pIC50 (Human Calpain 9/NS1): > 5.52
pIC50 (Human Calpain 1/NS1): > 5.52

Cc1cc(C(=O)N[C@@H](Cc2ccccc2)C(=O)C(=O)NC2CC2)n(-c2cccc3ncccc23)n1 [Compound 78, (S)—N-(4-(cyclopropylamino)-3,4-dioxo-1-phenylbutan-2-yl)-3-methyl-1-(quinolin-5-yl)-1H-pyrazole-5-carboxamide]
pIC50 (Human Calpain 2/NS1; Column B): 5.00 to 5.52
pIC50 (Human Calpain 9/NS1; Column C): > 5.52
pIC50 (Human Calpain 1/NS1; Column A): < 5.00

Cc1cc(C(=O)N[C@@H](Cc2ccccc2)C(=O)C(N)=O)n(-c2ncccn2)n1 (single isomer, unassigned) [Compound 36]
pIC50 (Human Calpain 2/NS1; Column B): 5.00 to 5.52
pIC50 (Human Calpain 9/NS1; Column C): 5.00 to 5.52
pIC50 (Human Calpain 1/NS1; Column A): < 5.00

Cc1cc(C(=O)N[C@@H](Cc2ccccc2)C(=O)C(N)=O)n(-c2ncccc2C)n1 [Compound 66, (S)—N-(4-amino-3,4-dioxo-1-phenylbutan-2-yl)-3-methyl-1-(3-methylpyridin-2-yl)-1H-pyrazole-5-carboxamide]
pIC50 (Human Calpain 2/NS1; Column B): > 5.52
pIC50 (Human Calpain 9/NS1; Column C): > 5.52
pIC50 (Human Calpain 1/NS1; Column A): 5.00 to 5.52

NC(=O)C(=O)C(Cc1ccccc1)NC(=O)c1c(Cl)cnn1-c1ccccc1 (centres unmarked) [Compound 280, N-(4-amino-3,4-dioxo-1-phenylbutan-2-yl)-4-chloro-1-phenyl-1H-pyrazole-5-carboxamide]
pIC50 (Human Calpain 2/NS1; Column B): > 5.52
pIC50 (Human Calpain 9/NS1; Column C): > 5.52
pIC50 (Human Calpain 1/NS1; Column A): > 5.52

Cn1nnc(-c2ccccc2)c1C(=O)N[C@@H](Cc1ccccc1)C(=O)C(N)=O [Compound 261, (S)—N-(4-amino-3,4-dioxo-1-phenylbutan-2-yl)-1-methyl-4-phenyl-1H-1,2,3-triazole-5-carboxamide]
pIC50 (Human Calpain 2/NS1; Column B): > 5.52
pIC50 (Human Calpain 9/NS1; Column C): > 5.52
pIC50 (Human Calpain 1/NS1; Column A): > 5.52

Cn1ncc(C(=O)N[C@@H](Cc2ccccc2)C(=O)C(N)=O)c1-c1cccnc1 [Compound 189, (S)—N-(4-amino-3,4-dioxo-1-phenylbutan-2-yl)-1-methyl-5-(pyridin-3-yl)-1H-pyrazole-4-carboxamide]
pIC50 (Human Calpain 2/NS1; Column B): > 5.52
pIC50 (Human Calpain 9/NS1; Column C): > 5.52
pIC50 (Human Calpain 1/NS1; Column A): > 5.52

Cc1nc(C(=O)NC(Cc2ccccc2)C(=O)C(N)=O)c(-c2ccccn2)o1 (centres unmarked) [Compound 314, N-(4-amino-3,4-dioxo-1-phenylbutan-2-yl)-2-methyl-5-(pyridin-2-yl)oxazole-4-carboxamide]
pIC50 (Human Calpain 2/NS1): 5.00 to 5.52
pIC50 (Human Calpain 9/NS1): 5.00 to 5.52
pIC50 (Human Calpain 1/NS1): 5.00 to 5.52

CC(C)(C)c1cc(C(=O)N[C@@H](Cc2ccccc2)C(=O)C(N)=O)n(-c2ccccc2)n1 [Compound 128, (S)—N-(4-amino-3,4-dioxo-1-phenylbutan-2-yl)-3-(tert-butyl)-1-phenyl-1H-pyrazole-5-carboxamide]
pIC50 (Human Calpain 2/NS1; Column B): < 5.00
pIC50 (Human Calpain 9/NS1; Column C): 5.00 to 5.52
pIC50 (Human Calpain 1/NS1; Column A): 5.00 to 5.52

Cn1cc(-c2ccccc2)c(C(=O)N[C@@H](Cc2ccccc2)C(=O)C(N)=O)n1 [Compound 241, (S)—N-(4-amino-3,4-dioxo-1-phenylbutan-2-yl)-1-methyl-4-phenyl-1H-pyrazole-3-carboxamide]
pIC50 (Human Calpain 2/NS1; Column B): > 5.52
pIC50 (Human Calpain 9/NS1; Column C): > 5.52
pIC50 (Human Calpain 1/NS1; Column A): > 5.52

Cn1cc(C(=O)NC(Cc2ccccc2)C(=O)C(N)=O)c(C(=O)c2ccccc2)n1 (centres unmarked) [Compound 395, N-(4-amino-3,4-dioxo-1-phenylbutan-2-yl)-3-benzoyl-1-methyl-1H-pyrazole-4-carboxamide]
pIC50 (Human Calpain 2/NS1): 5.00 to 5.52
pIC50 (Human Calpain 9/NS1): 5.00 to 5.52
pIC50 (Human Calpain 1/NS1): < 5.00

Reference: patent US11339130B1 (Blade Therapeutics, Inc., priority 2016, dated 2022)
